Experiments:
[1] = Agonist activity at MOR in Dunkin-Hartley guinea pig ileum assessed as inhibition of EFS-induced contractions incubated for 60 mins
[2] = Antagonist activity at DOR in CD1 mouse vas deferens assessed as pEC50 for DPDPE-induced inhibition of EFS-evoked contractions at 1 uM incubated for 60 mins

C[C@H]1[C@H]2Cc3ccc(O)cc3[C@]1(C)CCN2CCC(=O)Nc1cccc2ccccc12
EC50 [1]: 50100 µM
EC50 [2]: 7.94 µM

C[C@H]1[C@H]2Cc3ccc(O)cc3[C@]1(C)CCN2CCC(=O)Nc1ccccc1
EC50 [2]: 126 µM
